Measured values: patent publication US9447408B2, “Method of efficiently establishing induced pluripotent stem cells” (Kyoto University, priority 2010, dated 2016)

Tests used:
[1] = tested on: Human dermal fibroblasts (HDF 1616 line); assay: Human iPS cell colony formation, 4 genes introduced, SB202190 added Day 0 or day 5; type: cell-based
Protocol: Human dermal fibroblasts (HDF 1616 line) were treated using a lentivirus (pLenti6/UbC-Slc7a1) according to the method described by Takahashi, K. et al. in Cell, 131: 861-872 (2007), to express the mouse ecotropic virus receptor Slc7a1 gene. These cells were seeded to a 6-well culture plate (Falcon), previously coated with 0.1% gelatin (Sigma), at 1.0×10^5 cells per well. The following day, the four human genes were introduced using a retrovirus according to the method described by Takahashi, K. et al. in Cell, 131: 861-872 (2007). On day 4 after the infection, 2.0×10^5 cells were seeded to a 100 mm dish, containing previously seeded feeder cells. To determine the effect of a p38 inhibitor, SB202190 was added simultaneously with the infection (Day 0), or on day 5 after the infection, and the efficiency of iPS cell establishment was compared. On day 16 after the infection, iPS cell colonies were counted. The results are shown in the upper panel in FIG. 3. In the context of introduction of the four genes (Oct3/4, Sox2, Klf4, C-Myc), the number of human iPS cell colonies increased with the addition of SB202190 in the initial stage after the infection, compared with the addition of DMSO for control and the addition of SB202190 on day 5 after the infection. The four genes were introduced using a retrovirus in the same manner, but at a different cell density (3×10^4 cells/10 cm dish), with simultaneous addition of SB202190 (Day 0). SB202190 was added also on day 5 after the infection, and the efficiency of iPS cell establishment was compared. On day 16 after the infection, colony sizes were measured. The results are shown in the lower panel in FIG. 3. Even when the cell density was changed, the number of iPS cell colonies increased with the addition of SB202190 along with the four factors (Oct3/4, Sox2, Klf4, C-Myc), compared with the addition of DMSO.

[2] = tested on: Mouse embryonic fibroblasts (MEFs); assay: iPS cell establishment from MEFs, 3 genes (Oct3/4, Sox2, Klf4) introduced, with p38 inhibitors; type: cell-based; conditions: 10 μM inhibitor, 2×10^4 cells/10 cm dish, FIG. 2
Protocol: Three genes were introduced using a retrovirus by the same experimental procedures as the above. The cells were cultured at a cell density of 2×10^4 cells/10 cm dish, with the addition of 10 μM of SB202190, SB239063, or SB203580 (Calbiochem Company) to the medium per the schedule shown below, and the establishment efficiency was compared. • 1. Oct3/4, Sox2, Klf4, each derived from mouse, saline • 2. Oct3/4, Sox2, Klf4, each derived from mouse, DMSO • 3. Oct3/4, Sox2, Klf4, each derived from mouse, SB202190 10 μM (Day 1-4) • 4. Oct3/4, Sox2, Klf4, each derived from mouse, SB202190 10 μM (Day 1-8) • 5. Oct3/4, Sox2, Klf4, each derived from mouse, SB202190 10 μM (Day 9-16) • 6. Oct3/4, Sox2, Klf4, each derived from mouse, SB202190 10 μM (Day 1-16) • 7. Oct3/4, Sox2, Klf4, each derived from mouse, SB239063 10 μM (Day 1-4) • 8. Oct3/4, Sox2, Klf4, each derived from mouse, SB239063 10 μM (Day 1-8) • 9. Oct3/4, Sox2, Klf4, each derived from mouse, SB239063 10 μM (Day 9-16) • 10. Oct3/4, Sox2, Klf4, each derived from mouse, SB239063 10 μM (Day 1-16) • 11. Oct3/4, Sox2, Klf4, each derived from mouse, SB203580 10 μM (Day 1-4) • 12. Oct3/4, Sox2, Klf4, each derived from mouse, SB203580 10 μM (Day 1-8) • 13. Oct3/4, Sox2, Klf4, each derived from mouse, SB203580 10 μM (Day 9-16) • 14. Oct3/4, Sox2, Klf4, each derived from mouse, SB203580 10 μM (Day 1-16),

Oc1ccc(-c2nc(-c3ccc(F)cc3)c(-c3ccncc3)[nH]2)cc1 [SB202190, 4-(4-fluorophenyl)-2-(4-hydroxyphenyl)-5-(4-pyridyl)imidazole]
number of human iPS cell colonies on day 16 after the infection ([1]; 2.0×10^5 cells/100 mm dish, added in the initial stage (Day 0), compared with DMSO and addition on day 5): increased | number of iPS cell colonies on day 16 compared with DMSO ([1]; 3×10^4 cells/10 cm dish): increased | efficiency of iPS cell establishment, added on day 5 versus simultaneously with the infection ([1]; lower cell density 3×10^4 cells/10 cm dish): higher

COc1nccc(-c2c(-c3ccc(F)cc3)ncn2[C@H]2CC[C@H](O)CC2)n1 [SB239063, trans-1-(4-Hydroxycyclohexyl)-4-(4-fluorophenyl)-5-(2-methoxypyrimidin-4-yl)imidazole]
number of Nanog-GFP-positive colonies compared with physiological saline or DMSO [2]: increased | total number of colonies compared with physiological saline or DMSO [2]: increased
